This is an account of results in patent publication US6251868A, “Method for treating a human immunodeficiency virus infection” (Teijin Limited, priority 1998, dated 2001).

Data set [1] relates to HIV-1 production of H-9/IIIB cells. Kind of data set: HIV-1 p24 antigen production from H-9/IIIB cells at 1.25 or 2.5 mM (ELISA). Format: cell-based, HIV-1 (HIV-1IIIB). To be noted: for HIV-1 production (p24 antigen) from H-9/IIIB cells: days two and four; for production of HIV-1 from chronically infected cells: high doses, up to a concentration of 2.5 mM. The method, then: H-9/IIIB cells were washed thoroughly with phosphate-buffered saline (PBS) and resuspended at a density of 1×10^5 /ml in RPMI-1640/10% FBS with or without 1.25 or 2.5 mM of γ-GCE, GSH, or NAC. Since H-9/IIIB cells are constantly producing a large quantity of virus particles, stimulation with factors such as TNF-α or PMA were not required for carrying out these experiments. After two and four days, culture supernatant was removed, centrifuged to remove cells and debris, and evaluated by HIV-1 p24 antigen quantification. Measurement of the HIV-1 p24 antigen was performed by a sensitive enzyme-linked immunosorbant assay (ELISA) (DuPont).

Data set [2] concerns uninfected human T-lymphoid cell-line, H-9. Put plainly: Viability and growth of uninfected H-9 cells (trypan-blue exclusion). Format: cell-based. As to conditions: for cell viability (percentage of viable cells): through 6 days of incubation. The procedure: Every two or three days, 50-80% of cell suspensions were removed, and the same amount of fresh medium, with the same concentrations of the compound to be analyzed were added for further incubation. At the same time-points, viable cells were counted for calculating the relative cell growth value, by the trypan-blue exclusion method. At the same time, cell viability was also monitored as the percentage of viable cells in the total cell population.

For data set [3], the system named is H-9/IIIB cells (H-9 cells infected with HIV-1IIIB). Put plainly: Viability and growth of chronically HIV-1-infected H-9/IIIB cells (trypan-blue exclusion). Format: cell-based, human. The method, then: The uninfected human T-lymphoid cell-line, H-9, or H-9 cells infected with an HIV-1 strain, HIV-1IIIB (H-9/IIIB) (Science 1984; 224:497-500), were seeded in 24 or 96 well tissue culture plates at a density of 2-2.5×10^5 /ml and maintained in RPMI-1640 tissue culture medium supplemented with 10% fetal bovine serum (FBS), with or without a variety of concentrations of γ-GCE, GSH, or NAC. Every two or three days, 50-80% of cell suspensions were removed, and the same amount of fresh medium, with the same concentrations of the compound to be analyzed were added for further incubation. At the same time-points, viable cells were counted for calculating the relative cell growth value, by the trypan-blue exclusion method. At the same time, cell viability was also monitored as the percentage of viable cells in the total cell population. […]

Data set [4] deals with HIV-1 production of H-9/IIIB cells. Put plainly: HIV-1 p24 antigen production from H-9/IIIB cells at low, non-toxic doses. As to conditions: for HIV-1 production (p24 antigen) of H-9/IIIB cells: days three and six. Format: cell-based, HIV-1 (HIV-1IIIB). The procedure: H-9/IIIB cells were washed with PBS and seeded at a density of 2×10^5 /ml in RPMI-1640/10% FBS with or without 0.2or 0.4 mM of γ-GCE. Three and six days after initiation of experiments, culture supernatants were sampled and assayed, as described above. On day three, 72% of each cell suspension was removed, and fresh medium with a corresponding GSH pro-drug was added. Total HIV-1 p24 antigen production values on day six were deduced by multiplying raw values, on day six, with the dilution factor on day three.

In data set [5] the test system is HIV-1 strain NL-4-3 in H-9 cells. Kind of data set: Acute HIV-1 infection of H-9 cells. The data set is classed as cell-based, HIV-1 (NL4-3). The method, then: Virus stocks of the HIV-1NL4-3strain were prepared and titered as described previously (Hum Gene Ther 1995; 6: 1561-1571). H-9 cells (3×10^5cells.) were suspended in 1 ml of growth medium with or without γ-GCE at a variety of concentrations, and seeded in a chamber of a 24-well tissue culture plate. Virus suspension containing 30 pg of HIV-1 p24 antigen was added to each chamber, for the initial infection. Infection was carried out overnight at 37° C., then the cells were washed once with PBS, and once more with growth medium. The supernatant of the final wash was saved as a day 0 time-point. Washed cells were resuspended with corresponding media for further incubation at 37° C. Once in three days, cell suspensions and supernatants were harvested for cell counting and HIV-1 p24 antigen quantification. Measurement of cell growth, viability, and virus production were performed as described in a previous subsection. On the days of harvest, 200 μl of cell suspension was left in each well, and 800 μl of fresh medium with corresponding concentrations of γ-GCE was added to support cell growth, except day 18, on which 400 μl of cell suspension was left and 600 μl of medium was added to each well. Cell numbers at each time-point were determined accordingly, based on the accumulation of dilution factors along with the frequency of passage.

In data set [6] the test system is HIV-1 virus stock (NL4-3). Kind of data set: Direct inactivation of HIV-1 by pre-incubation, then acute infection of H9 cells. The data set is classed as cell-based, HIV-1 (NL4-3). As to conditions: for infectivity of HIV-1 after pre-incubation: 4 hours at 37° C., no viral production 15 days post-infection. The procedure:
An HIV-1 virus stock (NL4-3) containing 6 ng of HIV-1 p24 antigen was pre-incubated in the presence or absence of γ-GCE in 20 ml of RPMI-1640/10% FBS for 4 hr at 37° C. Afterwards, acute infection of H9 cells were carried out, using […] of each pretreated virus suspension into 1 ml of the cell suspension without γ-GCE, as described in the previous subsection. Sampling and maintenance of cell culture were also performed, following the same procedure as described in the previous subsection, without adding any γ-GCE through passage.

The mark [7] stands for this setting: some decrease in relative cell growth, minimal decrease in viability after 6 days.

Each structure is given as a SMILES string. Entries after “also recorded” stand apart in the source; their conditions may differ. A value given as a limit tells only on which side of the number the result lay.

Consider `N[C@@H](CCC(=O)N[C@@H](CS)C(=O)NCC(=O)O)C(=O)O` [GSH, glutathione], for which the “HIV-1 production (p24 antigen) from H-9/IIIB cells” value in data set [1] (1.25 mM) is on record as “neither GSH (triangles) nor NAC (rectangles) can overwhelm the vigorous HIV-1 production; also recorded: Neither GSH nor NAC could overwhelm the vigorous HIV-1 production; also recorded: did not alter viral expression”; in data set [1] (2.5 mM), “increased the virus production”. For the same molecule, in data set [1], the “production of HIV-1 from chronically infected cells” value is “neither GSH nor other GSH precursors show inhibitory effects”. The “effect on cell viability and growth of uninfected H-9 cells” value (shortened to “effect on cell viability and growth”) in data set [2] (2.5 mM) is given as “no negative effects on growth”. Besides, the “cell viability (percentage of viable cells)” value in data set [2] (uninfected H-9 cells, 2.5 mM) is at least 90%.
As for `CC(=O)N[C@@H](CS)C(=O)O` [NAC, N-acetylcysteine], the “HIV-1 production (p24 antigen) from H-9/IIIB cells” value in data set [1] (1.25 mM) is recorded as “neither GSH (triangles) nor NAC (rectangles) can overwhelm the vigorous HIV-1 production; also recorded: Neither GSH nor NAC could overwhelm the vigorous HIV-1 production; also recorded: did not alter viral expression”; in data set [1] (2.5 mM), “increased the virus production”. Also, in data set [2] (2.5 mM), the “effect on cell viability and growth” value is given as “no negative effects on growth”. Also, in data set [2] (uninfected H-9 cells, 2.5 mM, Day 4), the “cell viability, lowest value” came to 91.75±0.45%. Besides, in data set [2] (uninfected H-9 cells, 2.5 mM), the “cell viability (percentage of viable cells)” value is recorded as at least 90%.
For `CCOC(=O)[C@H](CS)NC(=O)CC[C@H](N)C(=O)O` [γ-GCE, γ-L-glutamyl-L-cysteine ethyl ester], the “HIV-1 production (p24 antigen) from H-9/IIIB cells” value in data set [1] (1.25 mM) and in data set [1] (2.5 mM) was “almost completely shut-off” each time. The “production of HIV-1 from chronically infected cells” value in data set [1] was “potently inhibits the production of HIV-1”. In addition, the “discrepancy of the thresholds of the toxic doses between infected and uninfected cells” value in data set [3] was “more than ten-fold”. In data set [3] (200 μM and 400 μM (either dose)), the “cell viability of H-9/IIIB cells” value was above 86%. Besides, the “cell growth of H-9/IIIB cells” value in data set [3] (400 μM) was “Slower cell growth”; in data set [3] (800 μM), “dramatically impairs growth; also recorded: dramatically impaired”; in data set [3] (800 μM, after 12 days of treatment) it was “no significant cell growth”. In data set [3] (5 mM on H-9 vs 400 μM on H-9/IIIB, equivalent cytotoxic profiles), the “sensitivity of H-9/IIIB cells to γ-GCE relative to uninfected cells (selective toxicity)” value is on record as “approximately 12.5 times”. Also, in data set [3] (H-9/IIIB, 800 μM, day six), the “cell growth relative to control” value is reported as “less than 40 % of the control”. Moreover, the “concentration giving equivalent cytotoxic profile on H-9/IIIB cells” value in data set [3] (setting [7]) was around 400 µM. In addition, the “HIV-1 production (p24 antigen) of H-9/IIIB cells” value in data set [4] (200 μM) and in data set [4] (400 μM) was “significantly inhibited” throughout. Moreover, the “viral production from chronically HIV1-expressing cells” value in data set [4] (lower concentrations (200-400 μM), viability not affected) is reported as “significantly represses”. The “effect on cell viability and growth” value in data set [2] (2.5 mM) was “unaffected; also recorded: no negative effects on cell viability and growth”. The “concentration giving equivalent cytotoxic profile on H-9 cells” value in data set [2] (setting [7]) was around 5000 µM. For the same molecule, the “cell viability (percentage of viable cells)” value in data set [2] (uninfected H-9 cells, 2.5 mM) is at least 90%. For the same molecule, the “propagation of HIV-1 (total HIV-1 p24 antigen)” value in data set [5] (1.6 mM, 21 days postinfection) is “completely blocked”. Moreover, the syncytia-formation result in data set [5] (1.6 mM, data not illustrated) was “not significantly observed”. Also, the “growth and viability of HIV-1-inoculated H-9 cells” value in data set [5] (1.6 mM, entire experiments) is given as “continued to grow actively, maintaining high viability”. Moreover, the “acute infection (total HIV-1 p24 antigen)” value in data set [5] (400-800 μM) is on record as “not inhibited significantly”. In data set [5] (relatively high doses), the “propagation of HIV-1 in acute infection of T-lymphocytic cells” value was “entirely blocked”. Moreover, in data set [6] (625 μM, 4 hours), the “propagation of HIV-1 in H-9 cells after pre-incubation of virus” value was “only some delay of the onset”. In addition, the “infectivity of HIV-1 after pre-incubation” value in data set [6] (1.25 mM) and in data set [6] (2.5 mM) was “completely inactivates; also recorded: loss of infectivity” throughout. Further, the “time in which infectivity of HIV-1 is directly inhibited” value in data set [6] (relatively high doses) was “within four hours”. Moreover, the “viral infectivity after pre-incubation” value in data set [6] (same concentrations (625 μM-2.5 mM), one hour, data not illustrated) is listed as “did not show significant interference”.
